According to patent publication US20060241145A1, “Piperidine derivative crystal, process for producing the same, and use” (priority 2005, published 2006):
pIC50: −log10 of the molar value. Counter-ions that a name gives are not always drawn.

Legend:
[1] = target: T1, substance P receptor (Homo sapiens, UniProt P25103); assay: Radioligand receptor binding inhibitory activity (binding inhibitory activity using receptor from human lymphoblast cells (IM-9)); conditions: 125I-BHSP (substance P labeled with [125I]), receptor from IM-9 cells, 25° C. 30 min
T1 construct: The receptors were prepared from human lymphoblast cells (IM-9); endogenous in cells; host or cells: IM-9 human lymphoblast cells (membrane preparation)
Description: Radioligand receptor binding inhibitory activity (Binding inhibitory activity using receptor from human lymphoblast cells (IM-9))
The method of M. A. Cascieri et al., “Molecular Pharmacology 42, p. 458 (1992)” was modified and used. The receptors were prepared from human lymphoblast cells (IM-9). IM-9 cells (2×10^5 cells/mL) were incubated for 3 days (one liter), which were then subjected to centrifuge for 5 min. at 500×G to obtain cell pellets. The obtained pellets were washed once with phosphate buffer (Flow Laboratories, CAT. No. 28-103-05), which were then homogenized using Polytron homogenizer (“Kinematika”, Germany) in 30 mL of 50 mM Tris-HCl buffer (pH 7.4) containing 120 mM sodium chloride, 5 mM potassium chloride, 2 μg/mL chymostatin, 40 μg/mL bacitracin, 5 μg/mL phosphoramidon, 0.5 mM phenylmethylsulfonyl fluoride, 1 mM ethylenediamine tetra-acetate, which was subjected to centrifuge at 40,000×G for 20 min. The residue was washed twice with 30 mL of the buffer, which was then preserved frozen (−80° C.) as a specimen of the receptors.
The specimen was suspended in a reaction buffer (50 mM Tris-HCl buffer (pH 7.4), 0.02% bovine serum albumin, 1 mM phenylmethylsulfonyl fluoride, 2 μg/mL chymostatin, 40 μg/mL bacitracin and 3 mM manganese chloride) to have protein in the concentration of 0.5 mg/mL of protein and 100 μL portion of the suspension was used in the reaction. After addition of the sample and ^125I-BHSP (0.46 KBq), the reaction was allowed to proceed in 0.2 mL of reaction buffer at 25° C. for 30 min. The amount of nonspecific binding was determined by adding substance P at a final concentration of 2×10^−6 M.
After the reaction, using a cell harvester (290 PHD, Cambridge Technology, Inc, U.S.A.), the reaction solution was filterd through a glass filter (GF/B, Whatman, U.S.A.), which was immersed in 0.1% polyethyleneimine for 24 hrs. and dried. After washing three times with 250 μL of 50 mM Tris-HCl buffer (pH 7.4) containing 0.02% bovine serum albumin, the radioactivity remaining on the filter was determined with a gamma counter.
The antagonistic activity of each compound obtained in Examples was determined in terms of the concentration necessary to cause 50% inhibition (IC50 value) under the above-described conditions, and the results were shown in Table 9.
The radio ligand means substance P labeled with [^125I].

[2] = system: urethane anesthetized male guinea pigs; assay: Bladder capacity increasing action in urethane anesthetized guinea pigs; assay type: in vivo, guinea pig; conditions: for changes in bladder capacity (vs. before administration, %) / changes in voiding pressure (vs. before administration, %): mean ± standard error; for effect on bladder capacity (in words) / effect on voiding pressure (in words): intravenous, summary of Table 10
Text: Bladder Capacity Increasing Activity of Tachykinin Receptor Antagonist, Oxybutynin and Tolterodine (Bladder Capacity Increasing Action in Urethane Anesthetized Guinea Pigs)
A urinary frequency/urinary incontinence suppressing effect of a substance having antagonistic action for tachykinin receptors was shown in terms of the ability to increase bladder capacity in urethane anesthetized male guinea pigs and compared with that of oxybutynin and tolterodine, which are therapeutic drugs for overactive bladder. Using male guinea pig under anesthesia, after emptying the bladder by suction, saline was infused into the bladder at a constant rate (0.3 mL/min.) until voiding. This procedure was repeated to confirm stable bladder capacity (amount of saline injected before induction of voiding). After confirming a stable response, a compound dissolved in DMSO was intravenously administered and the action was measured. Changes in the bladder capacity and voiding pressure after drug administration were measured.

T1 sequence (P25103 whole entry): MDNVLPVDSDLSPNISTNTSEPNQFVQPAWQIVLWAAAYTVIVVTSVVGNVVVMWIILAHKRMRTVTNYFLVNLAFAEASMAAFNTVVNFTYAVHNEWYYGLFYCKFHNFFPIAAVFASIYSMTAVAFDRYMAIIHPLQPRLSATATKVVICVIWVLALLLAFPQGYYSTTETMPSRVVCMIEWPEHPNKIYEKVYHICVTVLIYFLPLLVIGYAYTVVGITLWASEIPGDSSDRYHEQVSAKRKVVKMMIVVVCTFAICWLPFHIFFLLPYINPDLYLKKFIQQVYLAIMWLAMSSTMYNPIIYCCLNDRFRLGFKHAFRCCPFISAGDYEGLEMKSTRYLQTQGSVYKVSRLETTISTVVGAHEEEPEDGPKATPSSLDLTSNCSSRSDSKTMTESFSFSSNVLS

COc1ccc(-n2nnnc2C(F)(F)F)cc1CN[C@H]1CCN(C(=O)C(O)NC(C)=O)C[C@H]1c1ccccc1 (single isomer, unassigned) [Example 12]
pIC50 [1]: 10.80

COc1ccc(-n2nnnc2C(F)(F)F)cc1CN[C@H]1CCN(C(=O)C2CCNCC2)C[C@H]1c1ccccc1 [Example 10, (3R,4S)-N-(2-methoxy-5-[5-(trifluoromethyl)-1H-tetrazol-1-yl]benzyl)-3-phenyl-1-(piperidin-4-ylcarbonyl)piperidine-4-amine dihydrochloride]
pIC50 [1]: 10.80

COc1ccc(-n2nnnc2C(F)(F)F)cc1CN[C@H]1CCN(C(=O)C(O)NC(C)=O)C[C@H]1c1ccccc1 (single isomer, unassigned) [Example 13]
pIC50 [1]: 10.21

COc1ccc(-n2nnnc2C(F)(F)F)cc1CN[C@H]1CCN(C(C)=O)C[C@H]1c1ccccc1 [Example 6, (3R,4S)-1-acetyl-N-{2-methoxy-5-[5-(trifluoromethyl)-1H-tetrazol-1-yl]benzyl}-3-phenylpiperidine-4-amine monohydrochloride]
pIC50 [1]: 10.59

CCC(=O)NCC(=O)N1CC[C@H](NCc2cc(-n3nnnc3C(F)(F)F)ccc2OC)[C@H](c2ccccc2)C1 [Example 9, N-{2-[(3R,4S)-4-({2-methoxy-5-[5-(trifluoromethyl)-1H-tetrazol-1-yl]benzyl}amino)-3-phenylpiperidin-1-yl]-2-oxoethyl}propanamide monohydrochloride]
pIC50 [1]: 10.92

Cc1ccc(O)c([C@H](CCN(C(C)C)C(C)C)c2ccccc2)c1 [tolterodine]
changes in bladder capacity (vs. before administration, %) ([2]; dose 1 mg/kg intravenously): −3.4 ± 4.4% | changes in voiding pressure (vs. before administration, %) ([2]; dose 1 mg/kg intravenously): 0.1 ± 5.7% | changes in bladder capacity (vs. before administration, %) ([2]; dose 3 mg/kg intravenously): 14.8 ± 7.6% | changes in voiding pressure (vs. before administration, %) ([2]; dose 3 mg/kg intravenously): −6.7 ± 6.5 % | changes in bladder capacity (vs. before administration, %) ([2]; dose 10 mg/kg intravenously): 31.7 ± 9.1 % | changes in voiding pressure (vs. before administration, %) ([2]; dose 10 mg/kg intravenously): −15.5 ± 4.6 % | effect on bladder capacity (in words) [2]: significantly increased the bladder capacity | effect on voiding pressure (in words) [2]: voiding pressure lowering action of tolterodine was significant

COc1ccc(-n2nnnc2C(F)(F)F)cc1CN[C@H]1CCN(C(=O)C2CCN(S(C)(=O)=O)CC2)C[C@H]1c1ccccc1 [Example 11, (3R,4S)-N-{2-methoxy-5-[5-(trifluoromethyl)-1H-tetrazol-1-yl]benzyl}-1-{[1-(methylsulfonyl)piperidin-4-yl]carbonyl}-3-phenylpiperidine-4-amine monohydrochloride]
pIC50 [1]: 10.68

CCN(CC)CC#CCOC(=O)C(O)(c1ccccc1)C1CCCCC1 (centres unmarked) [oxybutynin]
changes in bladder capacity (vs. before administration, %) ([2]; dose 0.1 mg/kg intravenously): 1.8 ± 7.0% | changes in voiding pressure (vs. before administration, %) ([2]; dose 0.1 mg/kg intravenously): 4.3 ± 7.5% | changes in bladder capacity (vs. before administration, %) ([2]; dose 0.3 mg/kg intravenously): 19.3 ± 5.1 % | changes in voiding pressure (vs. before administration, %) ([2]; dose 0.3 mg/kg intravenously): −11.6 ± 5.4% | changes in bladder capacity (vs. before administration, %) ([2]; dose 1 mg/kg intravenously): 43.6 ± 7.7 % | changes in voiding pressure (vs. before administration, %) ([2]; dose 1 mg/kg intravenously): −12.1 ± 8.8% | changes in bladder capacity (vs. before administration, %) ([2]; dose 3 mg/kg intravenously): 36.8 ± 6.6 % | changes in voiding pressure (vs. before administration, %) ([2]; dose 3 mg/kg intravenously): −6.0 ± 5.6% | effect on bladder capacity (in words) [2]: significantly increased the bladder capacity | effect on voiding pressure (in words) [2]: showed lower voiding pressure

COc1ccc(-n2nnnc2C(F)(F)F)cc1CN[C@H]1CCN(C(=O)CNC=O)C[C@H]1c1ccccc1 [Example 5, {2-[(3R,4S)-4-({2-methoxy-5-[5-(trifluoromethyl)-1H-tetrazol-1-yl]benzyl}amino)-3-phenylpiperidin-1-yl]-2-oxoethyl}formamide]
pIC50 [1]: 10.77

COc1ccc(-n2nnnc2C(F)(F)F)cc1CN[C@H]1CCN(C(=O)CN2C(=O)CCC2=O)C[C@H]1c1ccccc1 [Example 7, 1-{2-[(3R,4S)-4-({2-methoxy-5-[5-(trifluoromethyl)-1H-tetrazol-1-yl]benzyl}amino)-3-phenylpiperidin-1-yl]-2-oxoethyl}pyrrolidine-2,5-dione monohydrochloride]
pIC50 [1]: 10.82

COc1ccc(-n2nnnc2C(F)(F)F)cc1CN[C@H]1CCN(C(=O)CNC(C)=O)C[C@H]1c1ccccc1 [Example 20, N-{2-[(3R,4S)-4-({2-methoxy-5-[5-(trifluoromethyl)-1H-tetrazol-1-yl]benzyl}amino)-3-phenylpiperidin-1-yl]-2-oxoethyl}acetamide]
changes in bladder capacity (vs. before administration, %) ([2]; dose 0.01 mg/kg intravenously): 5.8 ± 11.1% | changes in voiding pressure (vs. before administration, %) ([2]; dose 0.01 mg/kg intravenously): 10.1 ± 8.4% | changes in bladder capacity (vs. before administration, %) ([2]; dose 0.03 mg/kg intravenously): 3.0 ± 8.2% | changes in voiding pressure (vs. before administration, %) ([2]; dose 0.03 mg/kg intravenously): 18.5 ± 18.5% | changes in bladder capacity (vs. before administration, %) ([2]; dose 0.1 mg/kg intravenously): 42.9 ± 6.0 % | changes in voiding pressure (vs. before administration, %) ([2]; dose 0.1 mg/kg intravenously): 3.0 ± 8.0% | changes in bladder capacity (vs. before administration, %) ([2]; dose 0.3 mg/kg intravenously): 71.2 ± 25.2 % | changes in voiding pressure (vs. before administration, %) ([2]; dose 0.3 mg/kg intravenously): 4.9 ± 11.0% | effect on bladder capacity (in words) [2]: increased the bladder capacity in a dose-dependent manner | effect on voiding pressure (in words) [2]: without affecting the voiding pressure | pIC50 [1]: 10.77

COc1ccc(-n2nnnc2C(F)(F)F)cc1CN[C@H]1CCN(C(=O)CS(C)(=O)=O)C[C@H]1c1ccccc1 [Example 8, (3R,4S)-N-{2-methoxy-5-[5-(trifluoromethyl)-1H-tetrazol-1-yl]benzyl}-1-[(methylsulfonyl)acetyl]-3-phenylpiperidine-4-amine monohydrochloride]
pIC50 [1]: 10.66
